The results in this text go back to ChEMBL document CHEMBL6103607, “Novel Heterocyclic Piperazine Amide Derivatives as Alpha-synuclein PET Ligands for Diagnosis of Parkinson's Disease” (ACS Med Chem Lett, 2025).

Amyloid-beta precursor protein, sequence (P05067 whole entry): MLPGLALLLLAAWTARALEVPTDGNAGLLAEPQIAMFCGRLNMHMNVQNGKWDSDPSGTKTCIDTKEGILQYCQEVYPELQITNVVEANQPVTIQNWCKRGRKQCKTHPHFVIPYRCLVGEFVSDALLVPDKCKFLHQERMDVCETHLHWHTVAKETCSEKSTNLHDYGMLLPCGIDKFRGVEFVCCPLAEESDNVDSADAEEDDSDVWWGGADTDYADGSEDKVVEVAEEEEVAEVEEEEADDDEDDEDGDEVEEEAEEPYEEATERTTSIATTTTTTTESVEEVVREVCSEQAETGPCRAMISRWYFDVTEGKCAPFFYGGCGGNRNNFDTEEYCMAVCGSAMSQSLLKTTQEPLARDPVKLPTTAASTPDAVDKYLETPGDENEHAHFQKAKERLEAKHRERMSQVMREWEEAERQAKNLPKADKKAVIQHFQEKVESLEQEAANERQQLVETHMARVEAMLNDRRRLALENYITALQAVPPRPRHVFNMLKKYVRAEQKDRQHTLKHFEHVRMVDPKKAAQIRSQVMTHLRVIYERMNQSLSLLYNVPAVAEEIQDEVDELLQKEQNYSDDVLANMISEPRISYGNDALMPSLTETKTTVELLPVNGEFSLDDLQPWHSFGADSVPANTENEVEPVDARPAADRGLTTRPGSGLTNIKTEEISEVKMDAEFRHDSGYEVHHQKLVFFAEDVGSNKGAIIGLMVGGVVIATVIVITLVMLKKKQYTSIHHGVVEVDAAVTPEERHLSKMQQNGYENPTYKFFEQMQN

The experiment has as its target Amyloid-beta precursor protein (Homo sapiens, UniProt P05067). As to the kind of experiment: Displacement of [3H]-105 from amyloid-beta (unknown origin) in human brain homogenate assessed as inhibition constant incubated for 90 mins by radioligand binding assay. Format: tissue-based. For orientation: Displacement assays read how much labelled ligand stays bound in the presence of the test substance.
On to `C[C@H]1CN(c2ccc(F)cn2)CCN1c1ncc(NC(=O)c2ccc(N3CC[C@@H](F)C3)nc2)cn1`, for which the Ki is 12 µM.
Turning to `Cc1cocc1-c1ccc(C(=O)Nc2cnc(N3CCN(c4ccccn4)C[C@@H]3C)nc2)cn1`, the Ki is 10.8 µM.
In the case of `C[C@H]1CN(c2ccccn2)CCN1c1ncc(NC(=O)c2ccc(-n3cccn3)nc2)cn1`, the Ki amounted to 10.8 µM.
In the case of `C[C@H]1CN(c2cc([N+](=O)[O-])ccn2)CCN1c1ncc(NC(=O)c2ccc(N3CC(F)(F)C3)nc2)cn1` it was 12 µM; in that of `COC[C@H]1CN(c2ccccn2)CCN1c1ncc(NC(=O)c2ccc(-n3cccn3)nc2)cn1`, 12 µM.
With `C[C@H]1CN(c2ccc(F)cn2)CCN1c1ncc(NC(=O)c2ccc(N3CCC3)nc2)cn1`, the inhibition constant Ki turned out to be 12 µM.
In the case of `Cc1ccc(N2C[C@@H](C)N(c3ncc(NC(=O)c4ccc(-c5cncc(F)c5)nc4)cn3)[C@@H](C)C2)nc1` it was 12 µM; in that of `C[C@H]1CN(c2ccc(F)cn2)CCN1c1ncc(NC(=O)c2ccc(N3CC(F)C3)nc2)cn1`, 12 µM.

By Ki is commonly meant a dissociation constant, usually derived from enzyme kinetics or from competition with a known ligand.
